How the values were obtained:
Type in all cases: in vivo
[1] = tested on: Diabrotica balteata (Corn root worm); experiment: Example B1: Diabrotica balteata (Corn root worm), sprayed maize sprouts; conditions: 96 h, application rate 200 ppm, L2 larvae, 4 days after infestation, read-out: control in at least one of the two categories (mortality or growth inhibition)
Description: Example B1: Diabrotica balteata (Corn root worm)
Maize sprouts placed onto an agar layer in 24-well microtiter plates were treated with aqueous test solutions prepared from 10′000 ppm DMSO stock solutions by spraying. After drying, the plates were infested with L2 larvae (6 to 10 per well). The samples were assessed for mortality and growth inhibition in comparison to untreated samples 4 days after infestation.
(§1) The following compounds gave an effect of at least 80% control in at least one of the two categories (mortality or growth inhibition) at an application rate of 200 ppm: […]

[2] = tested on: Chilo suppressalis (Striped rice stemborer); experiment: Example B4: Chilo suppressalis (Striped rice stemborer), artificial diet; conditions: 144 h, application rate 200 ppm, L2 larvae, 6 days after infestation, read-out: control in at least one of the three categories (mortality, anti-feedant effect, or growth inhibition)
Description: Example B4: Chilo suppressalis (Striped rice stemborer) 24-well microtiter plates with artificial diet were treated with aqueous test solutions prepared from 10′000 ppm DMSO stock solutions by pipetting. After drying, the plates were infested with L2 larvae (6-8 per well). The samples were assessed for mortality, anti-feeding effect, and growth inhibition in comparison to untreated samples 6 days after infestation. Control of Chilo suppressalis by a test sample is given when at least one of the categories mortality, anti-feedant effect, and growth inhibition is higher than the untreated sample.

[3] = tested on: Plutella xylostella (Diamond back moth); experiment: Example B5: Plutella xylostella (Diamond back moth), artificial diet, 24-well; conditions: 192 h, application rate 200 ppm, eggs, 8 days after infestation, read-out: control in at least one of the two categories (mortality or growth inhibition)
Description: Example B5: Plutella xylostella (Diamond back moth)
24-well microtiter plates with artificial diet were treated with aqueous test solutions prepared from 10′000 ppm DMSO stock solutions by pipetting. After drying, Plutella eggs were pipetted through a plastic stencil onto a gel blotting paper and the plate was closed with it. The samples were assessed for mortality and growth inhibition in comparison to untreated samples 8 days after infestation.
as §1

[4] = tested on: Spodoptera littoralis (Egyptian cotton leaf worm); experiment: Example B9: Spodoptera littoralis (Egyptian cotton leaf worm), sprayed cotton leaf discs; conditions: foliar, 72 h, application rate 200 ppm, L1 larvae, 3 days after infestation, read-out: control in at least one of the three categories (mortality, anti-feedant effect, or growth inhibition)
Description: Example B9: Spodoptera littoralis (Egyptian cotton leaf worm)
Cotton leaf discs were placed onto agar in 24-well microtiter plates and sprayed with aqueous test solutions prepared from 10′000 ppm DMSO stock solutions. After drying the leaf discs were infested with five L1 larvae. The samples were assessed for mortality, anti-feeding effect, and growth inhibition in comparison to untreated samples 3 days after infestation. Control of Spodoptera littoralis by a test sample is given when at least one of the categories mortality, anti-feedant effect, and growth inhibition is higher than the untreated sample.

[5] = tested on: Spodoptera littoralis (Egyptian cotton leaf worm); experiment: Example B10: Spodoptera littoralis (Egyptian cotton leaf worm), uptake by lettuce roots from agar; conditions: 144 h, test rate 12.5 ppm, eggs, 6 days after infestation, read-out: control in at least one of the three categories (mortality, anti-feeding, or growth inhibition)
Description: Example B10: Spodoptera littoralis (Egyptian cotton leaf worm)
Test compounds were applied by pipette from 10′000 ppm DMSO stock solutions into 24-well plates and mixed with agar. Lettuce seeds were placed onto the agar and the multi well plate was closed by another plate which contained also agar. After 7 days the compound was absorbed by the roots and the lettuce grew into the lid plate. The lettuce leaves were then cut off into the lid plate. Spodoptera eggs were pipetted through a plastic stencil onto a humid gel blotting paper and the lid plate was closed with it. The samples were assessed for mortality, anti-feedant effect and growth inhibition in comparison to untreated samples 6 days after infestation.
The following compounds gave an effect of at least 80% control in at least one of the three categories (mortality, anti-feeding, or growth inhibition) at a test rate of 12.5 ppm: […]

[6] = tested on: Plutella xylostella (Diamondback Moth); experiment: Example B13: Plutella xylostella (Diamondback Moth), artificial diet, 96-well; conditions: 216 h, application rate 500 ppm, eggs/L1 larvae, 9 days after infestation
Description: Example B13: Plutella xylostella (Diamondback Moth)
96-well microtiter plates containing artificial diet were treated with aqueous test solutions, prepared from 10′000 ppm DMSO stock solutions, by a liquid handling robot. After drying, eggs (-30 per well) were infested onto a netted lid which was suspended above the diet. The eggs hatch and L1 larvae move down to the diet. The samples were assessed for mortality 9 days after infestation.
The following compounds gave an effect of at least 80% mortality at an application rate of 500 ppm: […]

[7] = tested on: Frankliniella occidentalis (Western flower thrips); experiment: Example B3: Frankliniella occidentalis (Western flower thrips): Feeding/contact activity; conditions: 168 h, application rate 200 ppm, population of mixed ages, 7 days after infestation
Description: Example B3: Frankliniella occidentalis (Western flower thrips):Feeding/contact activity
Sunflower leaf discs were placed on agar in 24-well microtiter plates and sprayed with aqueous test solutions prepared from […] stock solutions. After drying the leaf discs were infested with a Frankliniella population of mixed ages. The samples were assessed for mortality 7 days after infestation.

[8] = tested on: Myzus persicae (Green peach aphid); experiment: Example B12: Myzus persicae (Green Peach Aphid), 96-well sucrose solution; conditions: 120 h, application rate 50 ppm, 5 days after infestation
Description: Example B12: Myzus persicae (Green Peach Aphid)
Test compounds prepared from 10′000 ppm DMSO stock solutions were applied by a liquid handling robot into 96-well microtiter plates and mixed with a sucrose solution. Parafilm was stretched over the 96-well microtiter plate and a plastic stencil with 96 holes was placed onto the plate. Aphids were sieved into the wells directly onto the Parafilm. The infested plates were closed with a gel blotting card and a second plastic stencil and then turned upside down. The samples were assessed for mortality 5 days after infestation.

[9] = tested on: Myzus persicae (Green peach aphid); experiment: Example B8: Myzus persicae (Green peach aphid): Intrinsic activity; conditions: 120 h, test rate 12 ppm, 5 days after infestation
Description: Example B8: Myzus persicae (Green peach aphid): Intrinsic activity
Test compounds prepared from 10′000 ppm DMSO stock solutions were applied by pipette into 24-well microtiter plates and mixed with sucrose solution. The plates were closed with a stretched Parafilm. A plastic stencil with 24 holes was placed onto the plate and infested pea seedlings were placed directly on the Parafilm. The infested plate was closed with a gel blotting paper and another plastic stencil and then turned upside down. The samples were assessed for mortality 5 days after infestation.

C[C@H](NC(=O)c1cc(C(F)(F)F)nc(C2(C#N)CC2)c1)c1ncnn1-c1ccc(C#N)cn1 [P1, 2-(1-cyanocyclopropyl)-N-[(1S)-1-[2-(5-cyano-2-pyridyl)-1,2,4-triazol-3-yl]ethyl]-6-(trifluoromethyl)pyridine-4-carboxamide]
≥ 80%: percent control (mortality or growth inhibition) at 200 ppm [1] | percent control (mortality, anti-feedant effect or growth inhibition) at 200 ppm [2] | percent control (mortality or growth inhibition) at 200 ppm [3] | percent control (mortality, anti-feedant effect or growth inhibition) at 200 ppm [4] | percent control (mortality, anti-feeding or growth inhibition) at 12.5 ppm [5] | mortality at 500 ppm [6]

C[C@H](NC(=O)c1cc(C(F)(F)F)cc(S(=O)(=O)C(F)(F)F)c1)c1ncnn1-c1ccc(C#N)cn1 [P2, N-[(1S)-1-[2-(5-cyano-2-pyridyl)-1,2,4-triazol-3-yl]ethyl]-3-(trifluoromethyl)-5-(trifluoromethylsulfonyl) benzamide]
≥ 80%: percent control (mortality or growth inhibition) at 200 ppm [1] | percent control (mortality, anti-feedant effect or growth inhibition) at 200 ppm [2] | percent control (mortality or growth inhibition) at 200 ppm [3] | percent control (mortality, anti-feedant effect or growth inhibition) at 200 ppm [4] | percent control (mortality, anti-feeding or growth inhibition) at 12.5 ppm [5] | mortality at 500 ppm [6]

CC(NC(=O)c1cc(C(F)(F)F)cc(S(=O)(=O)C(F)(F)F)c1)c1ncnn1-c1ccc(C#N)cn1 (centres unmarked) [P5, N-[1-[2-(5-cyano-2-pyridyl)-1,2,4-triazol-3-yl]ethyl]-3-(trifluoromethyl)-5-(trifluoromethylsulfonyl)benzamide]
≥ 80%: percent control (mortality or growth inhibition) at 200 ppm [1] | mortality at 200 ppm [7] | percent control (mortality, anti-feedant effect or growth inhibition) at 200 ppm [2] | percent control (mortality or growth inhibition) at 200 ppm [3] | percent control (mortality, anti-feedant effect or growth inhibition) at 200 ppm [4] | percent control (mortality, anti-feeding or growth inhibition) at 12.5 ppm [5] | mortality at 500 ppm [6]

C[C@H](NC(=O)c1cc(C(F)(F)F)cc(C(F)(F)C2CC2)c1)c1ncnn1-c1ncc(OCC(F)F)cn1 [P7, 3-[cyclopropyl(difluoro)methyl]-N-[(1S)-1-[2-[5-(2,2-difluoroethoxy)pyrimidin-2-yl]-1,2,4-triazol-3-yl]ethyl]-5-(trifluoromethyl) benzamide]
≥ 80%: percent control (mortality, anti-feedant effect or growth inhibition) at 200 ppm [2] | percent control (mortality or growth inhibition) at 200 ppm [3] | percent control (mortality, anti-feedant effect or growth inhibition) at 200 ppm [4] | mortality at 50 ppm [8] | mortality at 500 ppm [6]

CC(NC(=O)c1cc(C2CC2)nc(C(F)(F)F)c1)c1ncnn1-c1ncc(OCC(F)F)cn1 (centres unmarked) [P22, 2-cyclopropyl-N-[1-[2-[5-(2,2-difluoroethoxy)pyrimidin-2-yl]-1,2,4-triazol-3-yl]ethyl]-6-(trifluoromethyl)pyridine-4-carboxamide]
≥ 80%: percent control (mortality or growth inhibition) at 200 ppm [1] | percent control (mortality, anti-feedant effect or growth inhibition) at 200 ppm [2] | percent control (mortality or growth inhibition) at 200 ppm [3] | mortality at 12 ppm [9] | percent control (mortality, anti-feedant effect or growth inhibition) at 200 ppm [4]

Reference: patent publication US20220183294A1, “PESTICIDALLY ACTIVE AZOLE AMIDE COMPOUNDS” (SYNGENTA CROP PROTECTION AG, priority 2019, published 2022)
